8‑arm PEG = 8-arm polyethylene glycol (PEG) dendrimer, conjugated via pyridyldisulfide groups to cysteine thiols

The source of these data is US9901646B2, “Methods for induction of antigen-specific immune tolerance” (École Polytechnique Fédérale de Lausanne (EPFL), priority 2010, dated 2018).

Data set [1] concerns mouse erythrocytes. The experiment in a line: 8-arm PEG constructs binding to erythrocytes in vitro, flow cytometry. A general note: In flow cytometry, cells or beads pass a laser one at a time.
In a further data set the test system is circulating erythrocytes. The data set is described as follows: 8-arm PEG constructs binding to circulating erythrocytes after intravenous injection, flow cytometry. The class given is in vivo, mouse. The text has this:
FIG. 17 presents experimental results depicting erythrocyte cell-surface half-life of 8-arm PEG-ERY1 (filled circles) and 8-arm PEG-MIS (empty boxes), determined by flow cytometry.

Data set [2] deals with human erythrocytes (type A and B). The data set is described as follows: Binding of bacteria displaying peptide to cells, flow cytometry. As to conditions: peptide displayed on bacteria, 1 h at 4° C. As for the experimental part:
(§1) Method: To characterize specificity, individual sequenced clones were analyzed using cytometry for binding toward human erythrocytes (type A and B), mouse erythrocytes, HEK293T cells and HUVECs. For binding assays, 10^6 mammalian cells were scanned on an AccuriA6 after co-incubation with 5×10^7 bacteria for 1 h at 4° C. followed by three washes in HFS (5% HSA, 2% FBS in PBS). The percentage of cells with green bacteria bound was calculated using FLOWJO Software.

Data set [3] deals with human epithelial 293T cells. The description is as above. As to conditions: peptide displayed on bacteria. As for the experimental part: as §1
In a further data set the test system is human endothelial HUVECs. The description is as above. Conditions: peptide displayed on bacteria. As for the experimental part:
as §1

Data set [4] has as its system OT-I CD8+ T cells. The data set is described as follows: OT-I CD8+ T cell adoptive transfer, short-term proliferation study (Example 21). The class given is in vivo, mouse. As to conditions: intravenous. As for the experimental part: CD8^+ T cells from OT-I (CD45.2^+) mouse spleens were isolated using a CD8 magnetic bead negative selection kit (Miltenyi Biotec) as per the manufacturer's instructions. Freshly isolated CD8^+ OT-I cells were resuspended in PBS and labeled with […] carboxyfluorescein succinimidyl ester (CFSE, Invitrogen) for 6 min at room temperature, and the reaction was quenched for 1 min with an equal volume of IMDM with 10% FBS (Gibco). Cells were washed, counted, and resuspended in pure IMDM prior to injection. 3×10^6 CFSE-labeled CD8^+ OT-I cells were injected intravenously into the tail vein of recipient CD45.1^+ mice. For short-term proliferation studies, 10 μg of ERY1-OVA or OVA, or an equimolar dose of TER119-SIINFEKL in 100 μL volume was injected 24 h following adoptive transfer. Splenocytes were harvested 5 d following antigen administration and stained for analysis by flow cytometry.
(§2) The following anti-mouse antibodies were used for flow cytometry: CD1d Pacific Blue, CD3E PerCP-Cy5.5, CD8a PE-Cy7, CD45.2 Pacific Blue, IFNγ-APC, CD8a APC-eF780, (all from eBioscience), in addition to fixable live/dead dye (Invitrogen), and annexin-V-Cy5 labeling kit (BioVision). Samples were analyzed on a CyAn ADP flow cytometer (Beckman Coulter). Cells were washed first with PBS, stained for 20 min on ice with live/dead dye, blocked for 20 min on ice with 24G2 hybridoma medium, surface stained for 20 min on ice, fixed in 2% paraformaldehyde for 20 min ice, intracellularly stained in the presence of 0.5% saponin for 45 min on ice, followed by a final wash prior to analysis. For apoptosis staining, annexin-V-Cy5 was added 5 min prior to analysis.

For data set [5], the system named is OT-I CD8+ T cells. The experiment in a line: OT-I tolerance and challenge model (Example 21). Type of data set: in vivo, mouse. As for the experimental part:
3×10^5 CFSE-labeled OT-I CD8^+ T cells were injected into CD45.1^+ recipient mice as described above. 1 and 6 d following adoptive transfer, mice were intravenously administered 10 μg of ERY1-OVA or OVA, or an equimolar dose of TER119-SIINFEKL in 100 μL, saline into the tail vein. 15 d following adoptive transfer, mice were challenged with 5 μg OVA and 25 ng ultra-pure Escherichia coli LPS (InvivoGen) in 25 μL intradermally into each rear leg pad (Hock method, total dose of 10 μg OVA and 50 ng LPS). Mice were sacrificed 4 d following challenge, and spleen and draining lymph node cells were isolated for restimulation. For flow cytometry analysis of intracellular cytokines, cells were restimulated in the presence of 1 mg/mL OVA or 1 μg/mL SIINFEKL peptide (Genscript) for 3 h. Brefeldin-A (Sigma, 5 μg/mL) was added and restimulation resumed for an additional 3 h prior to staining and flow cytometry analysis.
as §2

The subject of data set [6] is mouse erythrocytes. The experiment in a line: scFv binding to erythrocytes, flow cytometry with anti-6×His-PE. As for the experimental part: FIG. 19 presents experimental results as a flow cytometry histogram. Mouse erythrocytes were incubated with TER119-SIINFEKL (grey filled histogram) or albumin (empty histogram). Fluorescent signal comes from the anti-6×His-PE antibody used in detection of the scFv.

Data set [7] is described as follows: Prophylaxis study: tolerance towards wild-type asparaginase. The class given is in vivo, mouse. As to conditions: re-administration / six challenges with wild-type asparaginase. As for the experimental part: A prophylaxis study was performed to determine if erythrocyte-binding asparaginase induced bona-fide immune tolerance towards wild-type asparaginase. Mice previously administered with wild-type clinical asparaginase were challenged with an additional dose following the onset of humoral immunity. […] On average, mice tolerized with erythrocyte-binding asparaginase developed approx. 6000-fold fewer antibodies towards clinical wild-type asparaginase.
(§3) Desired dosages of ERY1-ASNase or ASNase were prepared in sterile 0.9% saline, and 100 μL of the solution was injected into the tail vein of anesthetized C57BL/6 mice. Blood was drawn at pre-determined time points either by cheek puncture or tail incisions.
(§4) Anti-asparaginase antibody detection from serum method Serum from experimental groups was serially diluted into PBS and incubated for 2 h at RT on ASNase-coated ELISA plates. HRP-conjugated anti-mouse IgG (Southern Biotech) was used as the detection antibody.

A short description of data set [8]: Cross-over study: reversal of pre-existing immunity towards asparaginase. Conditions: 21 days following multiple intravenous doses two days apart. Type of data set: in vivo, mouse. As for the experimental part: A cross-over study was performed to determine if erythrocyte-binding asparaginase could reverse immunity towards clinical asparaginase. Mice were intravenously administered multiple doses of wild-type asparaginase two days apart. […] Immunized mice were then therapeutically treated with erythrocyte-binding asparaginase regimens at varying doses. In both dosing regimens, ERY-conjugated asparaginase reduced antibody levels approx. 10-fold, thus reversing pre-existing humoral immunity
as §3
Serum from experimental groups was serially diluted into PBS and incubated for 2 h at RT on ASNase-coated ELISA plates. HRP-conjugated anti-mouse IgG (Southern Biotech) was used as the detection antibody.

Data set [9] in a line: Immunogenicity of erythrocyte-bound versus wild-type asparaginase, serum IgG ELISA. The class given is in vivo, mouse. As to conditions: 2-dose regimen, 15 μg i.v. every 2 days, up to 21 days following the final injection. As for the experimental part:
A mouse erythrocyte-binding variant of asparaginase (ERY1-ASNase) was created by conjugating the mouse erythrocyte-specific peptide ERY1 (Kontos and Hubbell, 2010). To determine the immunogenicity of erythrocyte-bound versus wild-type asparaginase, a study was performed to evaluate to evaluate two regimens, namely exposure to a 2-dose and a 6-dose regimen of the ERY conjugate (ERY1-ASNase) or the native form (ASPARAGINASE MEDAC, Medac GmbH; which was also used as the raw material for the ERY1-ASNase conjugate). In each regimen, 15 μg of ERY1-ASNase or ASNase was administered intravenously every 2 days, and blood was drawn every 7 days.
as §3, §4

The subject of the next data set is BDC2.5 CD4 T cells. The experiment in a line: Co-culture of BDC2.5 splenic dendritic cells and CD4 T cells, proliferation. Type of data set: cell-based, mouse. Conditions: co-culture with BDC2.5 splenic dendritic cells. The text has this:
FIG. 24 is a plot of experimental results showing proliferation of CD4 T cells from the transgenic NODBDC2.5 mouse in co-culture with splenic DCs, with various media additives.
To study T cell behavior towards the chromogranin-A antigen variants, the NODBDC2.5 transgenic mouse was used, which harbors T cells specific for the recognition of the chromogranin-A antigen.

Data set [10] relates to mouse erythrocytes. The data set is described as follows: TER119-ChrA binding to erythrocytes. Conditions: data not shown.
The mark [11] stands for this setting: following challenge with OVA and LPS.
Setting [12] is: i.v. 1 and 6 days after adoptive transfer, 4 d after OVA/LPS challenge.

As for “8-arm PEG-ERY1: fluorescent 8-arm PEG construct conjugated with ERY1 peptide by disulfide bond (H-WMVLPWLPGTLDGGSGC(8‑arm PEG)RG-NH2; also: Cys disulfide-linked to 8-arm PEG scaffold (fluorescent))”, the “binding to mouse erythrocytes following in vitro incubation” value with mouse erythrocytes [1] was “bind to mouse erythrocytes”. Moreover, the “binding to circulating erythrocytes upon intravenous injection” value in the data set with circulating erythrocytes (flow cytometry) was “bind to circulating erythrocytes”. In the data set on circulating erythrocytes (intravenous administration), the “cell-surface half-life on circulating erythrocytes” value is 2.2 h and the “time detected on circulating erythrocytes following intravenous administration” value came to 5 h.

Turning to “GQSGQSWSRAILPLFKIQPVGSSGGS (Erythrocyte Binding Peptide) [ERY50]”, in data set [2], the “binding to human erythrocytes, specificity as compared to 293T cells and HUVECs” value was “bound human erythrocytes”. In addition, in data set [3], the “binding to epithelial 293T cells” value is reported as “bound epithelial/endothelial cells”. Moreover, the “binding to endothelial HUVECs” value with human endothelial HUVECs is given as “bound epithelial/endothelial cells”.

Turning to “TER119-SIINFEKL: recombinant fusion of scFv TER119 to the MHC-I immunodominant domain of OVA (SGLEQLESIINFEKL; epitope)”, in the data set on OT-I CD8+ T cells [4] (10 μg or equimolar dose), the “PD-1+ proliferating OT-I CD8+ T cells compared to OVA” value is listed as “much higher numbers” and the “annexin-V+ proliferating OT-I CD8+ T cells compared to OVA” value is reported as “much higher numbers”. Also, the “OT-I CD8+ T cell proliferation (CFSE dilution) compared to ERY1-OVA or OVA” value in the data set with OT-I CD8+ T cells [4] (spleen, 5 days, dose equimolar to 10 μg OVA) is listed as “markedly enhanced”. In addition, in the data set with OT-I CD8+ T cells [5] (setting [11]), the “fewer IFNγ-expressing cells in lymph nodes compared to challenge control mice” value turned out to be 33 fold and the “fewer IFNγ-expressing cells in lymph nodes compared to mice treated with an equivalent dose of OVA” value was “over 14 fold”. In addition, in the data set on OT-I CD8+ T cells [5] (setting [12]), the “fewer OT-I CD8+ T cells in draining lymph nodes as compared to OVA-treated mice” value is listed as “over 13 fold” and the “fewer OT-I CD8+ T cells in draining lymph nodes than challenge control mice” value is recorded as “over 42 fold”. In addition, the “binding to mouse erythrocytes” value with mouse erythrocytes [6] is given as “bound mouse erythrocytes”.

B1: asparaginase (protein, UniProt P00805 23-348, looked up)
L-asparaginase 2: LPNITILATGGTIAGGGDSATKSNYTVGKVGVENLVNAVPQLKDIANVKGEQVVNIGSQDMNDNVWLTLAKKINTDCDKTDGFVITHGTDTMEETAYFLDLTVKCDKPVVMVGAMRPSTSMSADGPFNLYNAVVTAADKASANRGVLVVMNDTVLDGRDVTKTNTTDVATFKSVNYGPLGYIHNGKIDYQRTPARKHTSDTPFDVSKLNELPKVGIVYNYANASDLPAKALVDAGYDGIVSAGVGNGNLYKSVFDTLATAAKTGTAVVRSSRVPTGATTQDAEVDDAKYGFVASGTLNPQKARVLLQLALTQTKDPQQIQQIFNQY
notes: native asparaginase, Medac GmbH
Regarding B1, the “antibody response after challenge with wild-type asparaginase” value in [7] is reported as “increased or remained high”. For the same molecule, the “anti-asparaginase antibodies in serum” value in data set [8] is “high levels of anti-asparaginase antibodies”. Further, the “asparaginase-specific antibody titers (immunogenicity)” value in [9] is on record as “induced vigorous immunity”.

B2: TER119-ChrA: chromogranin-A mimotope 1040-p31 recombinantly fused to mouse erythrocyte-specific scFv TER119 (protein)
scFv: EVKLQESGGGLVQPGGSLKLSCVASGFTFRDHWMNWVRQAPGKTMEWIGDIRPDGSDTNYAPSVRNRFTISRDNTRSILYLQMGNMRSDYTATYYCVRDSPTRAGLMDAWGQGTSVTVSSAGGGGSGGGGSGGGGSGGGGSDIQMTQSPSVLSASVGDRVTLNCKASQNINKYLNRYQQKLGEAPKVLVYNTNNLQTGIPSRFSGSGSGTDFTLTISSLQPEDFATYFCFQHYTWPTFGGVTKLEIKRTHHHHHHGGGYVRPLWVRME
With B2, the “processing and display on MHC-II, priming of antigen-specific proliferation of BDC2.5 CD4 T cells in vitro” value in the data set on BDC2.5 CD4 T cells was “efficiently processed”. Besides, in the data set with mouse erythrocytes [10], the “binding to mouse erythrocytes” value was “tightly bound mouse erythrocytes”.
